Data reported in ChEMBL document CHEMBL3046599, “Synthesis and local anaesthetic activities of 2-aminothiazole/thiadiazole analogues of lidocaine” (Med Chem Res, 2012).

Experiments:
[1] = system: Mus musculus; assay: Local anaesthetic activity in sc dosed Mus musculus Swiss (mouse) tail assessed as loss of pain reflex measured with in 30 secs; format: functional, organism-based
[2] = system: Rattus norvegicus; assay: Local anaesthetic activity in Rattus norvegicus Wistar (rat) sciatic nerve block model assessed as time duration of loss of motor activity at 1 % solution measured over 45 min post injection; format: functional
[3] = system: Rattus norvegicus; assay: Local anaesthetic activity in Rattus norvegicus Wistar (rat) sciatic nerve block model assessed as time duration of loss of motor activity at 2 % solution measured until first sign of motor activity
[4] = system: Oryctolagus cuniculus; assay: Corneal anaesthetic activity in New Zealand Oryctolagus cuniculus (rabbit) assessed as inhibition of Frey's horse hair-induced blink reflex at 2 % solution relative to lidocaine; format: functional

| Structure (SMILES) | IC50 [1] | Time [2] | Time [3] | inhibition (INH) [4] |
| --- | --- | --- | --- | --- |
| CCN(CC)CC(=O)Nc1nc(-c2ccc(F)cc2Cl)cs1 | 23 mM | 25 min | 45 min | 44.3% |
| CCN(CC)CC(=O)Nc1nnc(Cc2ccc(OC)cc2)s1 | 36 mM | 77 min | 72 min | 54.2% |
| CCN(CC)CC(=O)Nc1nnc(Cc2ccc(F)cc2)s1 | 17 mM | 90 min | 210 min | 88.3% |
| O=C(CN1CCCCC1)Nc1nc(-c2ccc(F)cc2Cl)cs1 | 7.2 mM | 40 min | 160 min | 42.6% |
| COc1ccc(Cc2nnc(NC(=O)CN3CCCCC3)s2)cc1 | 24 mM | 35 min | 160 min | 34.8% |
| O=C(CN1CCCCC1)Nc1nnc(Cc2ccc(F)cc2)s1 | 6.6 mM | 40 min | 180 min | 92.6% |
| O=C(CN1CCOCC1)Nc1nc(-c2ccc(F)cc2Cl)cs1 | 32 mM | 75 min | 150 min | 25.6% |
| COc1ccc(Cc2nnc(NC(=O)CN3CCOCC3)s2)cc1 | 47 mM | 117 min | 63 min | 40.2% |
| O=C(CN1CCOCC1)Nc1nnc(Cc2ccc(F)cc2)s1 | 12.3 mM | 25 min | 50 min | 72.1% |
| CCN(CC)CC(=O)Nc1c(C)cccc1C.Cl | 9.2 mM | 65 min | 117 min | – |
